Assay results as given in US12419824B2, “Compounds useful for the treatment and/or care of the skin, hair, nails and/or mucous membranes” (Lubrizol Advanced Materials, Inc., priority 2019, dated 2025).

Columns and labels:
[1] = system: human muscular skeletal cells (hSKMC); assay: Prevention of TNF-α induced muscle mass loss in human skeletal muscle cells, immunofluorescence (Example 9); type: cell-based; conditions: 0.5 mg/ml with 20 ng/ml TNFα, 48 hours, myotube diameter threshold 20 μm
Method: Myosin heavy chain (MHyC) is used as a morphologic marker of differentiated myotubes allowing the measurement of their diameter, and therefore knowing their degree of mass loss. Tumor necrosis factor α (TNF-α) has been described in the literature as a muscle mass loss inductor.
Muscle mass loss prevention by the peptides of the invention is evaluated by an immunofluorescence assay. The aim of this study is to investigate the capacity of peptide candidates to prevent muscular mass loss in presence of TNF-α in human muscular skeletal cells (hSKMC).
hSKMC (Tebu-Bio) are seeded in 96-well plates at a density of 1.5×10^4 cells/well in Skeletal Muscle Cell Growth Medium (Promocell). After 24 hours incubation, medium is replaced with Skeletal Muscle Cell Differentiation Medium (Promocell) and cells are differentiated for 6 days. After this, fresh differentiation medium with 0.5 mg/ml of test items and 20 ng/ml of TNFα (Sigma) is added. Treatment is continued for 48 hours and non-treated cells are used as basal control and 20 ng/ml TNFα treated cells are used as a muscle mass loss control. […] Finally, myotube diameter is determined by imaging MHyC staining by Operetta™ (Perkin Elmer). Percentage of mass loss is automatically calculated with Harmony™ (Perkin Elmer) software by classifying myotubes according to their diameter using an atrophic threshold of 20 μm. […]

[2] = system: human muscular skeletal cells (hSKMC); assay: Alleviation (correction) of TNF-α induced muscle mass loss in human skeletal muscle cells, immunofluorescence (Example 10); type: cell-based; conditions: 0.01 mg/ml after 24 hours of 20 ng/ml TNFα, myotube diameter threshold 20 μm
Method: Muscle mass loss correction by the peptides of the invention is evaluated by an immunofluorescence assay. The aim of this study is to investigate the capacity of peptide candidates to correct muscular mass loss after treatment with TNF-α in human muscular skeletal cells (hSKMC). Myosin heavy chain (MHyC) is used as a morphologic marker of differentiated myotubes allowing the measurement of their diameter, and therefore knowing their degree of mass loss. Tumor necrosis factor α (TNF-α) has been described in the literature as a muscle mass loss inductor.
hSKMC (Tebu-Bio) are seeded in 96-well plates at a density of 1.5×10^4 cells/well in Skeletal Muscle Cell Growth Medium (Promocell). After 24 hours incubation, medium is replaced with Skeletal Muscle Cell Differentiation Medium (Promocell) and cells are differentiated for 6 days. After this, muscular cells mass loss is induced by adding fresh differentiation medium with 20 ng/ml TNFα (Sigma). Non-TNFα treated cells are used as basal mass loss control (BC). […] After 24 hours after the second treatment, immunofluorescence is determined. […] Finally, myotube diameter is determined by imaging MHyC staining by Operetta™ (Perkin Elmer). Percentage of mass loss is automatically calculated with Harmony™ (Perkin Elmer) software by classifying myotubes according to their diameter using a mass loss threshold of 20 μm.

Substance | muscle mass loss compared to TNF-α treatment (prevention) [1] | muscle mass loss compared to basal control treated with TNF-α (correction) [2]
H-Ala-Leu-Lys-Pro-Asn-Thr-NH2 (H-ALKPNT-NH2) [PEP2] | prevent mass loss | correct (i.e., reduces) mass loss
Ac-Asp-Val-Tyr-Lys-NH2 (Ac-DVYK-NH2) [PEP1] | prevent mass loss | correct (i.e., reduces) mass loss
